Experimental data from patent publication US4904664A, “Benzene compounds having two pyridazinone substituents” (Smith Kline & French Laboratories Limited, priority 1985, dated 1990).

How the values were obtained:
PDE (Peak III) = assay: Inhibition of phosphodiesterase PDE (Peak III) from cat heart; settings: 1 μM cyclic AMP
Experimental: The enzyme was assayed by incubation at 37° for 4-30 min in 50 mM Tris, 5 mM MgCl2, pH 7.5 with [3-H]cyclic nucleotide (4×10^5 disintegrations min^-1) and [14-C] nucleotide 5' monophosphate (3×10^3 disintegrations min^-1). […] The reaction mixture was diluted with 0.5 ml 100 mM HEPES (N-2-Hydroxyethylpiperazine-N'-2-ethanesulfonic acid), 100 mM NaCl, pH 8.5, and applied to the column. […] The recovery of product as judged by [14-C] recovery was approximately 80%. All assays were linear with time of incubation and concentration of enzyme over the range used in these experiments.

[1] = tested on: left ventricular contractility (left ventricular dp/dt max); assay: Cardiac stimulant activity in vivo, left ventricular dp/dt max in anaesthetised cats; settings: Felis catus, iv, read-out: ED50 (dose to increase left ventricular dp/dt max by 50%), i.v., pretreated with pempidine and propranolol
ventricular strips = assay: Cardiac stimulant activity in vitro, force of contraction of guinea pig ventricular strips; type: cell-based, Guinea pigs; settings: Cavia porcellus, read-out: EC50 (50% increase in the force of contraction of the ventricular strips); concentration in bathing fluid
Experimental: The compounds of formula (I) and their pharmaceutically acceptable salts are tested for cardiac stimulant activity following a procedure based on that of S. C. Verma and J. H. McNeill (J. Pharm. & Exp. Therapeutics, 200, 352-362 (1977)). Guinea pigs (500-700 g) of either sex are sacrificed and the hearts are quickly removed and transferred to a dissecting dish containing oxygenated bathing fluid. While in the bathing medium, the right ventricle is cut into two strips. The strips are each suspended in a 50 ml bath containing Krebs Henseleit solution at 37° C., and the bath is bubbled with 95% oxygen and 5% carbon dioxide. The ventricular strips are electrically stimulated at a frequency of 1.0 Hz, at double the threshold voltage. A resting tension of 1.0 g is applied to the strips and the tension is kept constant by readjustment during an equilibration period of 60 minutes. The bathing fluid is frequently changed during this period. When a steady base line is obtained, a compound under test is added to the bathing fluid and a cumulative concentration response curve is plotted.

[2] = tested on: hindquarters perfusion pressure; assay: Vasodilator activity in autoperfused anaesthetised cat hind quarters; type: in vivo; settings: Felis catus, iv, constant blood flow, i.v., read-out: ED15 (i.v. dose to decrease hindquarters perfusion pressure by 15%)
Experimental: The compounds of the Examples were tested in autoperfused anaesthetised cat hind quarters (autoperfused at constant blood flow). The i.v. dose to decrease hindquarters perfusion pressure (vasodilatation) by 15% is given as the ED15.

[3] = tested on: histamine-induced bronchoconstriction; assay: Bronchodilatation in vivo, histamine-induced bronchoconstriction in anaesthetised guinea-pigs; design: species or system Dunkin Hartley strain; settings: n=1
Experimental: Male guinea-pigs of the Dunkin Hartley strain (500-600 g) were anaesthetised with Sagatal (pentobarbital sodium) (60 mg/kg i.p.). Airway resistance was measured using a modification of the classical Konzett-Rossler technique (Versuchsanordnung zu Untersuchungen an der Bronchialmuskulatur. Naunyn-Schmiedebergs Arch. Exp. Path. Pharmak., 195: pp 71-74, (1940)). A dose of histamine which gave approximately 150% increase in airway resistance was selected for i.v. administration. Bolus doses of the compound of Example 6 were administered (i.v.) on minute before the histamine challenge (n=1).

## O=c1ccc(-c2ccc(-c3ccc(=O)[nH]n3)cc2)n[nH]1 [Example 1, 1,4-Bis(6-oxo-1,6-dihydropyridazin-3-yl)benzene]
PDE (Peak III)
  IC50: 330 nM
[1]
  ED50: 0.04 µmol/kg
Ventricular strips
  EC50: 900 nM

## O=C1CCC(c2ccc(C3=NNC(=O)CC3)cc2)=NN1 [Example 2, 1,4-Bis(6-oxo-1,4,5,6-tetrahydropyridazin-3-yl)benzene]
[2]
  ED15: 0.12 µmol/kg
PDE (Peak III)
  IC50: 640 nM
[1]
  ED50: 0.55 µmol/kg

## CC1CC(=O)NN=C1c1ccc(C2=NNC(=O)CC2C)cc1 (stereo not drawn) [Example 3, 1,4-Bis(4-methyl-6-oxo-1,4,5,6-tetrahydropyridazin-3-yl)benzene]
[2]
  ED15: 0.04 µmol/kg
PDE (Peak III)
  IC50: 110 nM
[1]
  ED50: 0.06 µmol/kg

## Cc1cc(=O)[nH]nc1-c1ccc(-c2n[nH]c(=O)cc2C)cc1 [Example 4, 1,4-Bis(4-methyl-6-oxo-1,6-dihydropyridazin-3-yl)benzene]
PDE (Peak III)
  IC50: 37500 nM

## O=c1ccc(-c2cccc(-c3ccc(=O)[nH]n3)c2)n[nH]1 [Example 5, 1,3-Bis(6-oxo-1,6-dihydropyridazin-3-yl)benzene]
[2]
  ED15: 3.23 µmol/kg
PDE (Peak III)
  IC50: 3900 nM
[1]
  ED50: 3.16 µmol/kg

## CC1CC(=O)NN=C1c1ccc(-c2ccc(=O)[nH]n2)cc1 (stereo not drawn) [Example 6, 6-[4-(4-Methyl-6-oxo-1,4,5,6-tetrahydropyridazin-3-yl)phenyl]pyridazin-3(2H)-one]
[2]
  ED15: 0.01 µmol/kg
PDE (Peak III)
  IC50: 70 nM
[1]
  ED50: 0.02 µmol/kg
[3]; Cavia porcellus, iv, read-out: ED50 (dose which would reduce the histamine bronchoconstriction by 50%), i.v. one minute before histamine challenge, calculated by interpolation
  ED50: 0.033 µmol/kg
[3]; i.v., in words
  effect on histamine-induced bronchoconstriction: reduced the histamine-induced bronchoconstriction
